Test results published in US9675616B2, “Arylaminoalcohol-substituted 2,3-dihydroimidazo[1,2-C]quinolines” (BAYER INTELLECTUAL PROPERTY GMBH, priority 2010, dated 2017).
pIC50: −log10 of the molar value.

Key:
[1] = target: PI3Kβ (complex of human p110β and human p85α) (Homo sapiens (Human), UniProt P42338); assay: PI3Kβ kinase assay (HTRF based PI3K inhibition assay); assay type: biochemical; conditions: for pIC50: 10 μM ATP, 10 μM PIP2, average value, read-out: average IC50 in the PI3K beta biochemical assay; for PI3K beta average IC50/PI3K alpha average IC50: ratio of beta IC50 to alpha IC50 (isoform balance)
Text: Determination of % Inhibition and IC50 Values of Compounds in PI3Kβ Kinase Assay
PI3Kβ inhibitory activity of compounds of the present invention was quantified employing the HTRF based PI3K inhibition assay as described below.
(§1) Chemicals and Assay Materials
(§2) As reagents for the kinase reaction itself and the quantification of the reaction product, the PI3-Kinase HTRF Assay kit from Millipore (#33-017) was used. With this kit the phosphatidylinositol 3,4,5-trisphosphate (PIP3) generated in the kinase reaction is detected by displacement of a biotinylated ligand from an energy transfer complex consisting of a Europium-labeled anti-GST monoclonal antibody, a GST-tagged PH domain, biotinylated PIP3 and Streptavidin-Allophycocyanin (APC).
For the assay 50 nL of a 80-fold concentrated solution of the test compound in DMSO was pipetted into a black low volume 384-well microtiter plate (Greiner Bio-One, Frickenhausen, Germany), 3 μl of a solution of PI3Kβ and phosphatidylinositol-4,5-bisphosphate (PIP2, 13.8 μM=>final conc. in 4 μl reaction volume=10 μM) in 1× reaction buffer (exact composition not disclosed by the vendor) were added and the mixture was incubated for 15 min at 22° C. to allow pre-binding of the test compounds to the enzyme before the start of the kinase reaction. The amount of PI3Kβ was chosen to have the enzyme reaction in the linear range and depended on the activity of the individual lot, typical concentrations in assay were in the range of 120 ng/mL. Then the kinase reaction was started by the addition of 1 μL of a solution of adenosine triphosphate (ATP, 40 μM=>final conc. in the 4 μl assay volume is 10 μM) in reaction buffer and the resulting mixture was incubated for a reaction time of 20 min at 22° C.
(§3) The reaction was stopped by the addition of 1 μL of an stop solution (containing the biotinylated PIP3 used as a tracer). Then 1 μL detection mix (containing a Europium-labeled anti-GST monoclonal antibody, a GST-tagged PH domain, and Streptavidin-Allophycocyanin) was added and resulting mixture was incubated for 3 h at 22° C. to allow the formation of complexes between the detection reagents and either the PIP3 generated in the kinase reaction, or the biotinylated PIP3 added with the stop solution. Subsequently the amount of energy transfer complex consisting of a Europium-labeled anti-GST monoclonal antibody, a GST-tagged PH domain, biotinylated PIP3 and Streptavidin-Allophycocyanin (APC) was evaluated by measurement of the resonance energy transfer from the Europium-labeled anti-GST monoclonal antibody to the Streptavidin-Allophycocyanin. Therefore, the fluorescence emissions at 620 nm and 665 nm after excitation at 350 nm were measured using a TR-FRET reader, e.g., a Pherastar (BMG Labtechnologies, Offenburg, Germany) or a Viewlux (Perkin-Elmer). The ratio of the emissions at 665 nm and at 622 nm were taken as the measure for the amount of biotinylated PIP3 bound to the GST-tagged PH domain, which is negatively correlated with the amount of PIP3 generated.

[2] = target: PI3Kα (complex of human p110α and human p85α) (Homo sapiens (Human), UniProt P42336); assay: PI3Kα kinase assay (HTRF-based PI3K inhibition assay); conditions: 10 μM ATP, 10 μM PIP2; average value; read-out: average IC50 in the PI3K alpha biochemical assay
Text: Determination of % Inhibition and IC50 Values of Compounds in PI3Kα Kinase Assay
PI3Kα inhibitory activity of compounds of the present invention was quantified employing the HTRF-based PI3K inhibition assay as described below.
as §1, §2
The amount of PI3Kα was chosen to have the enzyme reaction in the linear range and depended on the activity of the individual lot, typical concentrations in assay were in the range of 90 ng/mL. […]
as §3, with “tracer), then” for “tracer). Then”, “incubated” for “incubated for”, “Subsequently,” for “Subsequently”, “The ratio of the emissions at 665 nm and at 622 nm were taken as the measure for the amount of biotinylated PIP3 bound to the GST-tagged PH domain, which is negatively correlated with the amount of PIP3 generated.” left out

Chain of PI3Kβ (complex of human p110β and human p85α) (P42338 whole entry, canonical isoform): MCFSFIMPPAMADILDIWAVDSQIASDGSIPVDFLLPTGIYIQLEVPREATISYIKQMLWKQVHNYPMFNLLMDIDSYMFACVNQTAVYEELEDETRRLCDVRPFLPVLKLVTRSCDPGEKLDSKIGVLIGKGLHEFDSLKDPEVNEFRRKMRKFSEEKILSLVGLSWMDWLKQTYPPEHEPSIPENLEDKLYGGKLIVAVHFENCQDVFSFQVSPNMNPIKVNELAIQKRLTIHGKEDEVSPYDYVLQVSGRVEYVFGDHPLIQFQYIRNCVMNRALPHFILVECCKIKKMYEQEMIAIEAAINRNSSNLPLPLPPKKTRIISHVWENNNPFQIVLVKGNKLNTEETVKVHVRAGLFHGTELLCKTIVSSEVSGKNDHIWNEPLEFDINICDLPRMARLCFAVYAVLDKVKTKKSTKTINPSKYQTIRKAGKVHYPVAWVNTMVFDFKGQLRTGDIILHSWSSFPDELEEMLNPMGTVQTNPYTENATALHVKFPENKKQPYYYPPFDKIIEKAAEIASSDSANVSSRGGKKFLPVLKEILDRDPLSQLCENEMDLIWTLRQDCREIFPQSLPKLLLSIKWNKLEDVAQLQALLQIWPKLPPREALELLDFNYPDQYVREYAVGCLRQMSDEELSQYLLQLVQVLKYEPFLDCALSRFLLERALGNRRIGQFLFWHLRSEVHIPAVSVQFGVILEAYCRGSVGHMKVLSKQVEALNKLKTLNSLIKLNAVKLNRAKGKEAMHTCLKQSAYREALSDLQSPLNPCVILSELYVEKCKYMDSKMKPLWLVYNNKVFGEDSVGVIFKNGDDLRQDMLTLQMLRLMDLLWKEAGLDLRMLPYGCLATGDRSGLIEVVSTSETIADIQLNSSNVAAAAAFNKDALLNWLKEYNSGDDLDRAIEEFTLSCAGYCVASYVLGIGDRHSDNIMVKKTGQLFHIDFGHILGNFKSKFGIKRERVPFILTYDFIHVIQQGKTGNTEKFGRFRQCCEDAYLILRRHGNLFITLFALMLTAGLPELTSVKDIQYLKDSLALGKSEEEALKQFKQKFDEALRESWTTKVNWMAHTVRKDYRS
Chain of PI3Kβ (complex of human p110β and human p85α) (P27986 whole entry partner, canonical isoform): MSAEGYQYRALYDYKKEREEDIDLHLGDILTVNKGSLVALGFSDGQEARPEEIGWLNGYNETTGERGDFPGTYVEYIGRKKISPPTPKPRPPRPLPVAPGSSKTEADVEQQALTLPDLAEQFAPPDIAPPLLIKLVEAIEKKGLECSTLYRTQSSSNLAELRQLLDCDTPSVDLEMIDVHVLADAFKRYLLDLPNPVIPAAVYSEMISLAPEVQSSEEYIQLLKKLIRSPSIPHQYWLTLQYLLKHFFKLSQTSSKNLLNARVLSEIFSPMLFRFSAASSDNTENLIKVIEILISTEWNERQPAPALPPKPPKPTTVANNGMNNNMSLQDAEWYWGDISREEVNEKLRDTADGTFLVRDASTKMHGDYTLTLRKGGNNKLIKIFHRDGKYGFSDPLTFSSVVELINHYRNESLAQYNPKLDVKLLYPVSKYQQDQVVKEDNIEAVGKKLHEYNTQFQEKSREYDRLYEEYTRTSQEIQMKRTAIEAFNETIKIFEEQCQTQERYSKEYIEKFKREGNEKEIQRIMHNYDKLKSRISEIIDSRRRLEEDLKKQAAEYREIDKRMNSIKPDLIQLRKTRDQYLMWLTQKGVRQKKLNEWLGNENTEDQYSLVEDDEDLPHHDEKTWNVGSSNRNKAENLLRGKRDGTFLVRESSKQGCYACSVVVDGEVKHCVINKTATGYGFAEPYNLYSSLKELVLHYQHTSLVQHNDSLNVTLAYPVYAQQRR
Chain of PI3Kα (complex of human p110α and human p85α) (P42336 whole entry): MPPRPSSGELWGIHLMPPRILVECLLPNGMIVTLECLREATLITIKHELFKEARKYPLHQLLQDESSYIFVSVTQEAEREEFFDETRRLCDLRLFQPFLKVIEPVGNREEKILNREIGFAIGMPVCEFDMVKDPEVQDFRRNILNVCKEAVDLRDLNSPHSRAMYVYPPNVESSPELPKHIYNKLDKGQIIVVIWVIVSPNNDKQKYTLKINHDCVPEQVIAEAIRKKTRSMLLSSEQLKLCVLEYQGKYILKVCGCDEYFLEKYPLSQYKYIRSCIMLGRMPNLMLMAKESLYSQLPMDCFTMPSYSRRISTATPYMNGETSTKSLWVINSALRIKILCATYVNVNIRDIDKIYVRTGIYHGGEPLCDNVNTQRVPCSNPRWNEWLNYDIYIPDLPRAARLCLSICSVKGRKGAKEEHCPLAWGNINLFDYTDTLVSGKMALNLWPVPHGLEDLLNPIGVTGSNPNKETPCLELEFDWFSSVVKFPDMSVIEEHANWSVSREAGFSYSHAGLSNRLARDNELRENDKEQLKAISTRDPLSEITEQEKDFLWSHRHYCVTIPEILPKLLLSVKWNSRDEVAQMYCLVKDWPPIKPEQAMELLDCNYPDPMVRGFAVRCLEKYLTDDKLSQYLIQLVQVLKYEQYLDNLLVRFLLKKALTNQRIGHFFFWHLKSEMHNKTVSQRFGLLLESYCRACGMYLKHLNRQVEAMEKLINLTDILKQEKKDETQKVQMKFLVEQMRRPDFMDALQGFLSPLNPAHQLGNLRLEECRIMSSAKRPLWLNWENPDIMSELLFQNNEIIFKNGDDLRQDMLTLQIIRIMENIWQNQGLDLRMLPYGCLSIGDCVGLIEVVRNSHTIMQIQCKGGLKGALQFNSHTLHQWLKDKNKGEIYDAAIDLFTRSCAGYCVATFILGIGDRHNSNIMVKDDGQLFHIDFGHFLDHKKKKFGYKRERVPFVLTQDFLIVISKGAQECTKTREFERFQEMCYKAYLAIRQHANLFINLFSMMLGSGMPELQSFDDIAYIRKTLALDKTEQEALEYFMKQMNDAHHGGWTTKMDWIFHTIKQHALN
Chain of PI3Kα (complex of human p110α and human p85α) (P27986 whole entry partner): as the sequence (P27986 whole entry partner, canonical isoform) above

Row | pIC50 [1] | PI3K beta average IC50/PI3K alpha average IC50 [1] | pIC50 [2] | SMILES
1 | > 8.00 | 5.40 | > 8.00 | COc1c(OC[C@@H](O)CN[C@@H](C)c2ccccc2)ccc2c1N=C(NC(=O)c1cnc(N)nc1)N1CCN=C21 (relative stereo) [Example 5, rel-2-Amino-N-(8-{[(2R)-2-hydroxy-3-{[(1R)-1-phenylethyl]amino}propyl]oxy}-7-methoxy-2,3-dihydroimidazo[1,2-c]quinazolin-5-yl)pyrimidine-5-carboxamide]
2 | > 8.00 | 7.01 | > 8.00 | COc1c(OC[C@@H](O)CN[C@@H](C)c2ccccc2)ccc2c1N=C(NC(=O)c1cnc(N)nc1)N1CCN=C21 [Example 6, 2-Amino-N-(8-{[(2S)-2-hydroxy-3-{[(1S)-1-phenylethyl]amino}propyl]oxy}-7-methoxy-2,3-dihydroimidazo[1,2-c]quinazolin-5-yl)pyrimidine-5-carboxamide]
3 | > 8.00 | 3.44 | > 8.00 | COc1c(OC[C@H](O)CN[C@@H](C)c2ccccc2)ccc2c1N=C(NC(=O)c1cnc(N)nc1)N1CCN=C21 [Example 7, 2-Amino-N-(8-{[(2R)-2-hydroxy-3-{[(1S)-1-phenylethyl]amino}propyl]oxy}-7-methoxy-2,3-dihydroimidazo[1,2-c]quinazolin-5-yl)pyrimidine-5-carboxamide]
